This note sets out measurements from PubChem BioAssay AID1755 (Sanford-Burnham Center for Chemical Genomics, 2009).

As a reminder, the IC50 is the concentration that gives 50% inhibition.

Where “and” joins values, the source holds several entries; their conditions need not be identical. Equal entries are not always repeated. Calls of active or inactive are those of the source. How the calls were made is not given here.

The test concerns MDA-MB-435 TRAIL-induced apoptosis potentiation, viability. Put plainly: TRAIL apoptosis potentiation, viability loss, SAR follow-up, cell-based, MDA-MB-435, analog series (AID 1755).
`COc1cc(-c2ccccc2)[nH]c(=S)n1`: the IC50 is > 10 µM (inactive).

Turning to `CCSc1cc(N2CCCC2)nc(-c2ccc(Cl)cc2)n1`, the IC50 is > 10 µM (inactive). For `CC(Sc1nc(-c2ccccc2)cc(C(F)(F)F)n1)C(=O)N1CCCC1` (stereo not drawn) the value was > 10 µM (inactive). Turning to `CCSc1nc(-c2ccccc2)cc(=O)[nH]1`, the IC50 was > 10 µM (inactive). For `CSc1nc(-c2ccccc2)nc(-c2ccccc2)n1` the value was > 10 µM (inactive). Take `CSc1nc(-c2ccccc2)nc(-c2ccccc2OC(C)=O)n1`: the IC50 is > 10 µM (inactive). Then `CSc1nc(-c2ccccc2)nc(C(C)C)n1`, with > 10 µM (inactive); and `CSc1nc(-c2ccc(C)cc2)nc(C(Cl)Cl)n1`, with 4.81 µM and 3.27 µM.
